Reference: US7498349B2, “Biaryl compounds having anti-infective activity” (Genesoft Pharmaceuticals, Inc., priority 2002, dated 2009)
Values after ≈ are worked out from the molar mass of the structure shown. Where two headings read alike, the source gives them in different places.

Legend:
[1] = system: S. epidermidis ATCC 12228; assay: MIC, NCCLS broth microdilution assay; assay type: cell-based, Staphylococcus epidermidis
Excerpt: (§1) In vitro biological activity data were collected for a variety of microorganisms, including Bacillus cereus (ATCC 11778), Staphylococcus aureus (ATCC 33591; ATCC 27660, a methicillin resistant strain (MRSA); ATCC 13709, a methicillin sensitive strain (MSSA)), Escherichia coli (ATCC 25922), Enterococcus faecalis (ATCC 29212), Streptococcus pneumoniae (ATCC 49619; ATCC 51422, a penicillin resistant strain (PRSP)), Enterococcus faecium (ATCC 51559, a vancomycin resistant strain (VRE)), and Staphylococcus epidermidis (ATCC 12228).
(§2) The minimal inhibition concentration (MIC) of these compounds was determined using the National Committee for Clinical Laboratory Standards (NCCLS) broth microdilution assay in microtiter plates, as set forth in: (1) the guidelines of the National Committee for Clinical Laboratory Standards (NCCLS) Document M7-A4 (NCCLS, 1997); (2) the guidelines of the National Committee for Clinical Laboratory Standards (NCCLS) Document M11-A4 (NCCLS, 1997); and (3) the guidelines and reference method of the National Committee for Clinical Laboratory Standards (NCCLS) Document M27 -T (NCCLS, 1995).

E. coli ATCC 25922 = assay: MIC, NCCLS broth microdilution assay; assay type: cell-based, Escherichia coli; details: for MIC: Escherichia coli
C. albicans ATCC 38247 = assay: MIC, antifungal assay; assay type: cell-based, Candida albicans; details: for MIC: Candida albicans
Excerpt: In vitro biological activity data were collected for a variety of microorganisms, including Bacillus cereus (ATCC 11778), Staphylococcus aureus (ATCC 33591; ATCC 27660, a methicillin resistant strain (MRSA); ATCC 13709, a methicillin sensitive strain (MSSA)), Escherichia coli (ATCC 25922), Enterococcus faecalis (ATCC 29212), Streptococcus pneumoniae (ATCC 49619; ATCC 51422, a penicillin resistant strain (PRSP)), Enterococcus faecium (ATCC 51559, a vancomycin resistant strain (VRE)), and Staphylococcus epidermidis (ATCC 12228). Additionally, antifungal activity data were collected for Candida albicans (ATCC 38247).
The minimal inhibition concentration (MIC) of these compounds was determined using the National Committee for Clinical Laboratory Standards (NCCLS) broth microdilution assay in microtiter plates, as set forth in: (1) the guidelines of the National Committee for Clinical Laboratory Standards (NCCLS) Document M7-A4 (NCCLS, 1997); (2) the guidelines of the National Committee for Clinical Laboratory Standards (NCCLS) Document M11-A4 (NCCLS, 1997); and (3) the guidelines and reference method of the National Committee for Clinical Laboratory Standards (NCCLS) Document M27 -T (NCCLS, 1995). For antifungal assays, the method recommended in Murray, PR., 1995 Manual of Clinical Microbiology (ASM Press, Washington, D.C.), was employed.

B. cereus ATCC 11778 = assay: MIC, NCCLS broth microdilution assay; assay type: cell-based, Bacillus cereus; details: for MIC: Bacillus cereus
E. faecalis ATCC 29212 = assay: MIC, NCCLS broth microdilution assay; assay type: cell-based, Enterococcus faecalis; details: for MIC: Enterococcus faecalis
S. pneumoniae ATCC 49619 = assay: MIC, NCCLS broth microdilution assay; assay type: cell-based, Streptococcus pneumoniae; details: for Minimum Inhibitory Concentration (MIC): S. pneumoniae ATCC 49619
S. aureus ATCC 33591 = assay: MIC, NCCLS broth microdilution assay; assay type: cell-based, Staphylococcus aureus; details: for MIC: Staphylococcus aureus
Excerpt: as §1, §2

S. aureus ATCC 27660 = assay: MIC, NCCLS broth microdilution assay; assay type: cell-based, Staphylococcus aureus; details: for MIC: Staphylococcus aureus, ATCC 27660 / MRSA, read-out: Minimum Inhibitory Concentration (MIC)
Excerpt: as §1, §2

S. aureus ATCC 13709 = assay: MIC, NCCLS broth microdilution assay; assay type: cell-based, Staphylococcus aureus; details: for MIC: Staphylococcus aureus, ATCC 13709 / MSSA, read-out: Minimum Inhibitory Concentration (MIC)
Excerpt: as §1, §2

[2] = S. aureus ATCC 27660, methicillin resistant strain (MRSA)
[3] = S. aureus ATCC 13709, methicillin sensitive strain (MSSA)

Row | SMILES | Minimum Inhibitory Concentration (MIC) [1] | Minimum Inhibitory Concentration (MIC) (E. coli ATCC 25922; E. coli ATCC 25922) | Minimum Inhibitory Concentration (MIC) (C. albicans ATCC 38247; C. albicans ATCC 38247) | Minimum Inhibitory Concentration (MIC) (B. cereus ATCC 11778; B. cereus ATCC 11778) | Minimum Inhibitory Concentration (MIC) (E. faecalis ATCC 29212; E. faecalis ATCC 29212) | Minimum Inhibitory Concentration (MIC) (S. pneumoniae ATCC 49619) | Minimum Inhibitory Concentration (MIC) (S. aureus ATCC 33591; S. aureus ATCC 33591) | Minimum Inhibitory Concentration (MIC) (S. aureus ATCC 27660; [2]) | Minimum Inhibitory Concentration (MIC) (S. aureus ATCC 13709; [3]) | other results
1 | O=C(Nc1ccc(-c2cc3ccccc3o2)cc1)c1cccnc1NCCCNC1CCCCC1 [Compound A-12] | + (12 ≦ MIC ≦ 32) | >32 µg/mL | + (12 ≦ MIC ≦ 32) | + (12 ≦ MIC ≦ 32) | ++ (4 < MIC < 12) | ++ (4 < MIC < 12) |  |  |  | 
2 | O=C(Nc1ccc(-c2cc3ccccc3s2)cc1)c1cccnc1NCCN1CCCC1 [Compound A-49] | +++ (MIC ≦ 4) | >32 µg/mL | +++ (MIC ≦ 4) | +++ (MIC ≦ 4) | +++ (MIC ≦ 4) | + (12 ≦ MIC ≦ 32) | +++ (MIC ≦ 4) | +++ (MIC ≦ 4) | +++ (MIC ≦ 4) | 
3 | CN(CCCN)CCCNc1snc(C(=O)Nc2ccc(-c3cc4ccccc4o3)cc2)c1Cl [Compound A-8] | +++ (MIC ≦ 4) | + (12 ≦ MIC ≦ 32) | ++ (4 < MIC < 12) | +++ (MIC ≦ 4) | +++ (MIC ≦ 4) | + (12 ≦ MIC ≦ 32) | +++ (MIC ≦ 4) | +++ (MIC ≦ 4) | +++ (MIC ≦ 4) | 
4 | NCCCCNc1ncccc1C(=O)Nc1ccc(-c2cc3ccccc3o2)cc1 [Compound A-18] | +++ (MIC ≦ 4) | >32 µg/mL | ++ (4 < MIC < 12) | +++ (MIC ≦ 4) | ++ (4 < MIC < 12) | +++ (MIC ≦ 4) | +++ (MIC ≦ 4) | +++ (MIC ≦ 4) | +++ (MIC ≦ 4) | 
5 | CN(C)CCCNc1ncccc1C(=O)Nc1ccc(-c2cc3ccccc3s2)cc1 [Compound A-50] | +++ (MIC ≦ 4) | >32 µg/mL | +++ (MIC ≦ 4) | +++ (MIC ≦ 4) | +++ (MIC ≦ 4) | + (12 ≦ MIC ≦ 32) | +++ (MIC ≦ 4) | +++ (MIC ≦ 4) | +++ (MIC ≦ 4) | 
6 | CN1CCN(CCNc2snc(C(=O)Nc3ccc(-c4cc5ccccc5[nH]4)cc3)c2Cl)CC1 [Compound A-61] |  | >32 µg/mL | +++ (MIC ≦ 4) | >32 µg/mL | >32 µg/mL | >32 µg/mL | >32 µg/mL | >32 µg/mL | >32 µg/mL | 
7 | O=C(Nc1ccc(-c2cc3ccccc3s2)nc1)c1cccnc1NCCN1CCCCC1 [Compound A-72] |  | >32 µg/mL | >32 µg/mL | >32 µg/mL | >32 µg/mL | >32 µg/mL | >32 µg/mL | >32 µg/mL | >32 µg/mL | 
8 | Cc1cc(NC(=O)c2nsc(NCCN3CCCCC3)c2Cl)ccc1-c1cc2ccccc2o1 [Compound A-32] |  |  |  |  |  |  |  |  |  | MIC ([1]; Staphylococcus epidermidis, ATCC12228, read-out: Minimum Inhibitory Concentration (MIC)): < 4 µg/mL; MIC (E. coli ATCC 25922; ATCC25922, E. coli ATCC 25922, read-out: Minimum Inhibitory Concentration (MIC)): 12 to 32 µg/mL (≈ 24.2 to 64.6 µM); MIC (S. aureus ATCC 33591; ATCC33591, S. aureus ATCC 33591, read-out: Minimum Inhibitory Concentration (MIC)): < 4 µg/mL; MIC (S. aureus ATCC 27660; [2]): < 4 µg/mL; MIC (S. aureus ATCC 13709; [3]): < 4 µg/mL; MIC (C. albicans ATCC 38247; ATCC38247, C. albicans ATCC 38247, read-out: Minimum Inhibitory Concentration (MIC)): 4 to 12 µg/mL (≈ 8.08 to 24.2 µM); MIC (B. cereus ATCC 11778; ATCC11778, B. cereus ATCC 11778, read-out: Minimum Inhibitory Concentration (MIC)): > 32 µg/mL; MIC (E. faecalis ATCC 29212; ATCC29212, E. faecalis ATCC 29212, read-out: Minimum Inhibitory Concentration (MIC)): < 4 µg/mL
9 | O=C(Nc1ccc(-c2cc3ccccc3o2)nc1)c1ccc(Cl)cc1NCCN1CCNCC1 [Compound A-42] | ++ (4 < MIC < 12) | >32 µg/mL | >32 µg/mL | ++ (4 < MIC < 12) | ++ (4 < MIC < 12) | + (12 ≦ MIC ≦ 32) |  | ++ (4 < MIC < 12) | ++ (4 < MIC < 12) | 
10 | NCCNc1snc(C(=O)Nc2ccc(-c3cc4ccccc4[nH]3)cc2)c1Cl [Compound A-56] |  | >32 µg/mL | + (12 ≦ MIC ≦ 32) | >32 µg/mL | + (12 ≦ MIC ≦ 32) | >32 µg/mL | ++ (4 < MIC < 12) | ++ (4 < MIC < 12) | ++ (4 < MIC < 12) | 
11 | CCN(CC)CCCNc1cc(Cl)ccc1C(=O)Nc1ccc(-c2cc3ccccc3o2)cc1 [Compound A-23] |  | >32 µg/mL | + (12 ≦ MIC ≦ 32) | +++ (MIC ≦ 4) | +++ (MIC ≦ 4) | + (12 ≦ MIC ≦ 32) | +++ (MIC ≦ 4) | +++ (MIC ≦ 4) | +++ (MIC ≦ 4) | 
12 | NCCNc1cc(Cl)ccc1C(=O)Nc1ccc(-c2cc3ccccc3o2)nc1 [Compound A-45] |  |  |  |  |  |  |  |  |  | MIC (E. coli ATCC 25922; ATCC25922, read-out: Minimum Inhibitory Concentration (MIC)): > 32 µg/mL; MIC (S. aureus ATCC 33591; ATCC33591, read-out: Minimum Inhibitory Concentration (MIC)): < 4 µg/mL; MIC (S. aureus ATCC 27660): < 4 µg/mL; MIC (S. aureus ATCC 13709): < 4 µg/mL; MIC (C. albicans ATCC 38247; ATCC38247, read-out: Minimum Inhibitory Concentration (MIC)): 4 to 12 µg/mL (≈ 9.83 to 29.5 µM); MIC (B. cereus ATCC 11778; ATCC11778, read-out: Minimum Inhibitory Concentration (MIC)): 4 to 12 µg/mL (≈ 9.83 to 29.5 µM); MIC (E. faecalis ATCC 29212; ATCC29212, read-out: Minimum Inhibitory Concentration (MIC)): 4 to 12 µg/mL (≈ 9.83 to 29.5 µM); MIC (S. pneumoniae ATCC 49619; Streptococcus pneumoniae, ATCC49619, read-out: Minimum Inhibitory Concentration (MIC)): 12 to 32 µg/mL (≈ 29.5 to 78.6 µM)
13 | CN(C)CCCNc1cc(Cl)ccc1C(=O)Nc1ccc(-c2cc3ccccc3o2)nc1 [Compound A-44] |  | >32 µg/mL | ++ (4 < MIC < 12) | ++ (4 < MIC < 12) | ++ (4 < MIC < 12) | + (12 ≦ MIC ≦ 32) | ++ (4 < MIC < 12) | ++ (4 < MIC < 12) | ++ (4 < MIC < 12) | 
14 | O=C(Nc1ccc(-c2cc3ccccc3s2)nc1)c1nsc(NCCN2CCCCC2)c1Cl [Compound A-69] |  | >32 µg/mL | >32 µg/mL | >32 µg/mL | >32 µg/mL | >32 µg/mL | >32 µg/mL | >32 µg/mL | >32 µg/mL | 
